Measurements as given in patent publication US7999137B2, “Pesticide bi-phenyl-amidine derivatives” (Bayer Cropscience AG, priority 2006, dated 2011).

Key:
[1] = tested on: Heliotis virescens; test: Test on Heliotis virescens (HELIVI spray application), egg mortality on soybean leaf sections; assay type: in vivo; conditions: eggs on sprayed soybean leaf sections; concentration and time not stated
Source text: Heliotis virescens—Test on Heliotis virescens (HELIVI Spray Application)
To produce a suitable preparation of the active compound, 1 part by weight of active compound is mixed with the stated amount of solvent and emulsifier, and the concentrate is dilutes with emulsifier-containing water to the desired concentration.
Soybean (Glycine max.) leaf sections are sprayed with a preparation of the active ingredient of the desired concentration. Once dry, the leaf sections are infested with eggs of cotton bollworm (Heliotis virescens).
After the specified period of time, mortality in % is determined. 100% means that all eggs have been killed and 0% means that none of the eggs have been killed.

[2] = logP by HPLC on reversed-phase column (C 18), EEC Directive 79/831 Annex V.A8; assay type: physicochemical; conditions: HPLC reversed-phase C 18; 40° C.; 0.1% aqueous formic acid and acetonitrile, linear gradient 10% to 90% acetonitrile
Procedure: Temperature: 40° C.; Mobile phases: 0.1% aqueous formic acid and acetonitrile; linear gradient from 10% acetonitrile to 90% acetonitrile.
Calibration was carried out using unbranched alkan-2-ones (comprising 3 to 16 carbon atoms) with known logP values (determination of the logP values by the retention times using linear interpolation between two successive alkanones).

[3] = tested on: Aedes aegypti larvae; test: In vivo protective test on Aedes aegypti (AEDSAE U), larvae mortality; conditions: concentration and time not stated
Procedure: In Vivo Protective Test on Aedes Aegypti (AEDSAE U)
To produce a suitable preparation of the active compound, the active compound is mixed with the stated amount of solvent, and the concentrate is diluted with staining water to the desired concentration.
Aedes aegypti larvae are pipetted with a preparation of active ingredient of the desired concentration.
After the specified period of time, mortality in % is determined. 100% means that all larvae have been killed, a 0% means that none of the larvae have been killed.

In the case of CCN(C)C=Nc1ccc(-c2ccc(C(F)(F)F)cc2)cc1F [Compound 26], the “activity (mortality of eggs)” value [1] is reported as “good activity”, the “log p (HCOOH)” value [2] is reported as 1.87 and the “activity (mortality of larvae)” value [3] is reported as “good activity”.

With CCN(C)C=Nc1cc(F)c(-c2ccc(Cl)cc2)cc1C [Compound 99] the “log p (HCOOH)” value [2] was 2.23 and the “activity (mortality of larvae)” value [3] was “good activity”.

With CCN(C)C=Nc1ccc(-c2ccc(F)c(Cl)c2)cc1F [Compound 9] the “log p (HCOOH)” value [2] was 1.78 and the “activity (mortality of larvae)” value [3] was “good activity”.

In the case of CCN(C)C=Nc1ccc(-c2ccc(Cl)c(C(F)(F)F)c2)cc1C(F)(F)F [Compound 19], the “log p (HCOOH)” value [2] is reported as 2.90 and the “activity (mortality of larvae)” value [3] is reported as “good activity”.

With CC(C)N(C)C=Nc1ccc(-c2ccc(OC(F)(F)F)cc2)c(Cl)c1 [Compound 105] the “log p (HCOOH)” value [2] was 2.42 and the “activity (mortality of larvae)” value [3] was “good activity”.

In the case of CCc1cc(-c2ccc(Cl)c(Cl)c2)ccc1N=CN(C)CC [Compound 54], the “log p (HCOOH)” value [2] is reported as 2.37 and the “activity (mortality of larvae)” value [3] is reported as “good activity”.

In the case of Cc1cc(-c2ccc(Cl)cc2)c(F)cc1N=CN(C)C(C)C [Compound 104], the “log p (HCOOH)” value [2] is reported as 2.22 and the “activity (mortality of larvae)” value [3] is reported as “good activity”.

With CCN(C)C=Nc1ccc(-c2ccc(Cl)c(C(F)(F)F)c2)cc1Cl [Compound 18] the “log p (HCOOH)” value [2] was 2.19 and the “activity (mortality of larvae)” value [3] was “good activity”.

For CCN(C)C=Nc1ccc(-c2ccc(C(C)(C)C)cc2)cc1C [Compound 129], the “log p (HCOOH)” value [2] was 2.67 and the “activity (mortality of larvae)” value [3] was “good activity”.

For CCN(C)C=Nc1cc(C)c(-c2ccc(Oc3ccccc3)cc2)cc1C [Compound 47], the “log p (HCOOH)” value [2] was 2.56 and the “activity (mortality of larvae)” value [3] was “good activity”.

With CCN(C)C=Nc1ccc(-c2cccc(Cl)c2)cc1C [Compound 128] the “log p (HCOOH)” value [2] was 2.01 and the “activity (mortality of larvae)” value [3] was “good activity”.

In the case of CCN(C)C=Nc1ccc(-c2ccc(OC(F)(F)F)cc2)c(Cl)c1 [Compound 100], the “log p (HCOOH)” value [2] is reported as 2.15 and the “activity (mortality of larvae)” value [3] is reported as “good activity”.

In the case of CCN(C)C=Nc1ccc(-c2ccc(C=NOC)cc2)cc1F [Compound 77], the “log p (HCOOH)” value [2] is reported as 1.73 and the “activity (mortality of larvae)” value [3] is reported as “good activity”.

In the case of CCN(C)C=Nc1ccc(-c2ccc(COC)cc2)cc1C [Compound 37], the “log p (HCOOH)” value [2] is reported as 1.59.

For CCN(C)C=Nc1ccc(-c2cc(OC)c(OC)c(OC)c2)cc1C(F)(F)F [Compound 75], the “log p (HCOOH)” value [2] was 1.79.

In the case of CCN(C)C=Nc1ccc(-c2ccc(OC)c(OC)c2)cc1Cl [Compound 74], the “log p (HCOOH)” value [2] is reported as 1.54.

In the case of CCN(C)C=Nc1ccc(-c2ccc(OC)c(OC)c2)cc1C(F)(F)F [Compound 94], the “log p (HCOOH)” value [2] is reported as 1.71.

In the case of CCN(C)C=Nc1ccc(-c2ccc(C(F)(F)F)cc2)cc1C [Compound 127], the “log p (HCOOH)” value [2] is reported as 2.17 and the “activity (mortality of larvae)” value [3] is reported as “good activity”.

In the case of Cc1ccc(-c2cc(C)c(N=CN3CCCC3)cc2C)cc1Cl [Compound 150], the “log p (HCOOH)” value [2] is reported as 2.37.

In the case of CCN(C)C=Nc1cc(C)c(-c2ccc(OC(C)C)cc2)cc1C [Compound 170], the “log p (HCOOH)” value [2] is reported as 2.18.

In the case of CCN(C)C=Nc1ccc(-c2ccc(OC)c(OC)c2OC)cc1F [Compound 12], the “log p (HCOOH)” value [2] is reported as 1.50.

In the case of CCN(C)C=Nc1ccc(-c2ccc(OC)c(OC)c2)cc1F [Compound 95], the “log p (HCOOH)” value [2] is reported as 1.41.

For COc1cc(-c2ccc(C)cc2)c(OC)cc1N=CN(C)C(C)C [Compound 103], the “log p (HCOOH)” value [2] was 2.01.

For CCc1cc(-c2ccc(C(F)(F)F)cc2)ccc1N=CN(C)CC [Compound 27], the “log p (HCOOH)” value [2] was 2.20.

With CCN(C)C=Nc1ccc(-c2ccc(F)c(F)c2)cc1C [Compound 34] the “log p (HCOOH)” value [2] was 1.89.

For CCN(C)C=Nc1ccc(-c2ccc(Cl)cc2Cl)cc1C(F)(F)F [Compound 85], the “log p (HCOOH)” value [2] was 2.39.

For CCN(C)C=Nc1ccc(-c2cc(OC)c(OC)c(OC)c2)cc1Cl [Compound 63], the “log p (HCOOH)” value [2] was 1.58.

For Cc1cc(-c2ccc(C(C)(C)C)cc2)c(C)cc1N=CN1CCCC1 [Compound 119], the “log p (HCOOH)” value [2] was 2.79.

In the case of CCN(C)C=Nc1ccc(-c2ccc(Oc3ccccc3)cc2)cc1F [Compound 90], the “log p (HCOOH)” value [2] is reported as 2.20.

In the case of CCN(C)C=Nc1ccc(-c2ccc(Oc3ccccc3)cc2)cc1C [Compound 35], the “log p (HCOOH)” value [2] is reported as 2.41.
